The values below come from patent publication US20080287371A1, “MACROCYCLIC ANTAGONISTS OF THE MOTILIN RECEPTOR FOR MODULATION OF THE MIGRATING MOTOR COMPLEX” (Tranzyme Pharma Inc., priority 2007, published 2008).

Each structure is given as a SMILES string. Entries after “also recorded” stand apart in the source; their conditions may differ.

One test relates to MMC. Conditions: dog; cited from earlier work.
The subject of test [1] is fundic tone / gastric accommodation. Briefly: Animal model of fundic accommodation (Method E, barostat, milk meal). The class given is in vivo, Beagle dogs. As to the method:
Fundic accommodation in response to a 200 mL milk meal was measured using a barostat. This can be considered as a model for functional dyspepsia, at least some occurrences of which is known to be a result of poor gastric accommodation (Tack, J.; Piessevaux, H.; Coulie, B.; Caenepeel, P.; Janssens, J. Gastroenterology 1998, 115, 1346-1352; DiStefano, M.; Micelli, E.; Mazzocchi, S.; Tana, P.; Corazza, G. R. Eur. Rev. Med. Pharmacol. Sci. 2005, 9, 23-28; Kindt, S.; Tack, J. Gut 2006, 55, 1685-1691; van den Elzen, B. D.; Boeckxstaens, G. E. Aliment. Pharmacol. Ther. 2006, 23, 1499-1510.). The described method is based upon a literature method. (Meulemans A. Schuurkes J. Neurogastroenterol. Motil. 1995, 7, 151-155.) The use of gallbladder volume has been linked to the motilin effect in functional dyspepsia and also can be used as a biomarker to test the effect of an antagonist on FD in humans. (Kamerling, I. M. C.; Van Haarst, A. D.; De Kam, M. L.; Cohen, A. F.; Masclee, A. A. M.; Burggraaf, J. Aliment, Pharmacol. Ther. 2004, 19, 797-804.) Other methods can also be utilized for this assessment and have been reviewed. (DeSchepper, H. U.; Cremonini, F.,; Chitkara, D.; Camilleri, M. Neurogastroenterol. Motil. 2004, 16, 275-285.) The dog is often used as an appropriate model for GI diseases due to the similarity in the alimentary tracts between dogs and humans. Additionally, the dog motilin receptor has been identified and characterized with the expression profile determined. It shares 71% homology to the human receptor and 72% to the rabbit receptor. (Ohshiro, H.; Nonaka, M.; Ichikawa, K. Regul. Pept. 2008, 146, 80-87.)
Beagle dogs were trained to stand quietly in Pavlov frames. Each was implanted using the following procedure with a gastric and duodenal cannula under general anesthesia with standard aseptic precautions. After a medium laparotomy, an incision was made through the gastric wall in the longitudinal direction between the greater and the lesser curvature, 2 cm above the nerves of Latarjet. The gastric cannula (diameter 18 mm) was secured to the gastric wall by means of an appropriate suture and then brought out via a stab wound at the left quadrant of the hypochondrium. The duodenal cannula (diameter 4 mm) was implanted at about 12 cm distal to the pylorum. An incision of approximately 1 cm was made through the duodenal wall 3 cm distally from the site of implantation. The cannula was brought into the duodenum though this incision. The top of the cannula was brought out of the duodenal wall at the place of implantation and secured to the wall via suture. Afterwards, the duodenum was closed and the duodenal cannula was brought out via a stab wound at the right quadrant of the hypochondrium. Dogs were allowed a recovery period of 2 weeks during which they were treated with antibiotics.
Variations in gastric tone were measured by recording changes in the volume of air within an intragastric bag maintained at constant pressure (6 mm Hg) by a barostat. The barostat consists of an air injection system which is connected by a double-lumen polyvinyl tube to an ultrathin flaccid polyethylene bag with maximum volume of approximately 700 mL. Gastric tonic contractions cause the barostat to withdraw air to maintain the pressure, while relaxation triggers air injection to maintain pressure. In that manner, intrabag volume is an inverse measure of proximal gastric tone. Differences in gastric tone were recorded using a computer. […]

Test [2] has as its system post-prandial gastrointestinal activity. As to the kind of experiment: Strain gauge animal model (Method F): post-prandial gastrointestinal activity in fed dogs. Format: in vivo, beagle dogs. As to the method:
Gastrointestinal motility was measured for 24 hours by telemetry in freely moving beagle dogs instrumented with strain gauges on both the antrum and duodenum. The method utilized for the strain gauges was based upon that in the literature. (Edelbroek, M.; Schuurkes, J.; De Ridder, W.; Horowitz, M.; Dent, J.; Akkermans, L. Dig. Dis. Sci. 1995, 40, 901-911; Briejer, M. R.; Prins, N. H.; Schuurkes, J. A. Neurogastroenterol. Motil. 2001 13, 465-472.) Analogous methods that can be used are known. (Dog: Itohb, Z.; Honda, R.; Takeuchi, S.; Aizawa, I.; Takayanagi, R. Gastroenterol. Jpn. 1977, 12, 275-283; Iwai, T.; Nakamura, H.; Takanashi, H.; et al. Can. J. Physiol. Pharmacol. 1998, 76, 1103-1109; Dog and guinea pig, Ohno, T.; Kamiyama, Y.; Aihara, R.; Nakabayashi, T.; Mochiki, E.; Asao, T.; Kuwano, H. Neurogastroenterol. Motil. 2006, 18, 129-135; Rat: Bunce, K. T.; Elswood, C. J.; Ball, M. T. Br. J. Pharmacol. 1991, 102, 811-816; Guinea pig: Cooke, H. J.; Wang, Y. Z.; Frieling, T.; Wood, J. D. Am. J. Physiol. 1991, 261, G833-G840.) […]
Intraluminal pressures were recorded with a manometric assembly incorporating a sleeve sensor with a 4.8 cm length (outer diameter 5.4 mm) to monitor pyloric pressure waves. […]

Test [3] deals with migrating motor complex (MMC). Briefly: Strain gauge animal model (Method F): migrating motor complex in fasted dogs. The class given is in vivo, beagle dogs. To be noted: for effect on the migrating motor complex (MMC): fasted beagle dogs. As to the method:
Gastrointestinal motility was measured for 24 hours by telemetry in freely moving beagle dogs instrumented with strain gauges on both the antrum and duodenum. The method utilized for the strain gauges was based upon that in the literature. (Edelbroek, M.; Schuurkes, J.; De Ridder, W.; Horowitz, M.; Dent, J.; Akkermans, L. Dig. Dis. Sci. 1995, 40, 901-911; Briejer, M. R.; Prins, N. H.; Schuurkes, J. A. Neurogastroenterol. Motil. 2001 13, 465-472.) Analogous methods that can be used are known. (Dog: Itohb, Z.; Honda, R.; Takeuchi, S.; Aizawa, I.; Takayanagi, R. Gastroenterol. Jpn. 1977, 12, 275-283; Iwai, T.; Nakamura, H.; Takanashi, H.; et al. Can. J. Physiol. Pharmacol. 1998, 76, 1103-1109; Dog and guinea pig, Ohno, T.; Kamiyama, Y.; Aihara, R.; Nakabayashi, T.; Mochiki, E.; Asao, T.; Kuwano, H. Neurogastroenterol. Motil. 2006, 18, 129-135; Rat: Bunce, K. T.; Elswood, C. J.; Ball, M. T. Br. J. Pharmacol. 1991, 102, 811-816; Guinea pig: Cooke, H. J.; Wang, Y. Z.; Frieling, T.; Wood, J. D. Am. J. Physiol. 1991, 261, G833-G840.)
Calibrated strain gauges (Schuurkes, J. A. J.; Van der Schee, E. J.; Grashuis, J. L.; Charbon, G. R. A. in Gastrointestinal Motility in Health and Disease; Duthie, H. L., Ed., MTP Press, Lancaster (UK), 1978, pp 647-654) and bipolar extracellular electrodes were implanted under aseptic conditions in each of four female beagle dogs. (Bass, P.; Wiley, J. N. J. Appl. Physiol. 1972, 32, 567-570.) The strain gauges were sutured onto the seromuscular layer parallel to the axis of the circular muscle, on the distal antrum (3 cm orad to the distal pyloric loop), proximal duodenum (3 cm and 6 cm aborad to the pylorus) and distal pyloric muscle loop. The bipolar extracellular electrodes were implanted onto the scrosal side of the distal antrum and proximal duodenum 2 cm orad and aborad to the pylorus. The lead wires were brought out via a subcutaneous tunnel in the left costal flank through a stab wound between the scapulae. Postsurgically, the lead wires were soldered to the connectors and protected appropriately.
In the same surgical incision, a gastrostomy and duodenostomy were performed. The gastrostomy was situated anteriorly in the midventral region between the lesser and greater curvature 2 cm orad to the nerve of Latarget and kept patent with a stainless steel cannula (internal diameter 1.4 cm, length 7.0 cm). The duodenostomy was situated 10 cm aborad to the pylorus and was kept patent with a cannula of smaller diameter (internal diameter 0.9 cm, length 7.5 cm). A thin tubing (outer diameter 2.2 mm) was pulled across the pylorus and attached to the caps of the gastric and duodenal cannulae in order to facilitate placement of the manometric assembly postsurgically. The greater omentum was wrapped around the cannulae to secure positioning and then the cannulae were tightly capped between experiments to permit normal feeding. Dogs were allowed to recover for at least two weeks prior to conduct of any experiments.
Intraluminal pressures were recorded with a manometric assembly incorporating a sleeve sensor with a 4.8 cm length (outer diameter 5.4 mm) to monitor pyloric pressure waves. (Dent, J. Gastroenterology 1976, 71, 263-267.) Four side holes were spaced at 1.6-cm intervals along the sleeve length. Side holes at each end of the sleeve were used to measure antral and duodenal pressures and transmucosal potential difference (TMPD) simultaneously. (Arndorfer, R. C.; Stef, J. J.; Doss, W. J.; Linehan, J. H.; Hogan, W. J. Gastroenterol. 1977, 73, 23-27.) Two additional side holes were placed 3.3 and 1.6 cm orad to the proximal end of the sleeve (antral sites) and another two side holes were placed 1.6 and 3.3 cm aborad to the distal end of the sleeve (duodenal sites). All channels were perfused with degassed distilled water at 0.3 mL/min, except for the side holes used to measure the antroduodenal TMPD, which were perfused with saline. […]

For `Cc1[nH]cnc1CN1CCc2c(c3ccccc3n2C)C1=O` [Alosetron], the “effect on the MMC” value in the test on MMC is reported as “block the MMC”.
Consider `CC(C)[C@H]1NC(=O)[C@@H](Cc2cccc(C(F)(F)F)c2)NCCOc2ccccc2CCCNC(=O)[C@H](CN(C)C)NC1=O` [Compound 502], for which the “gastric accommodation in response to the meal” value in test [1] (0.30 mg/kg i.v. bolus, continuous motilin infusion) is given as “improved gastric accommodation”. Moreover, in test [1] (0.30 mg/kg i.v., exogenous motilin 0.010 mg/kg/h i.v.), the “effect on motilin-induced fundic contraction” value is reported as “antagonized the effects of exogenous motilin; also recorded: antagonized the fundic contraction induced by infusion of exogenous motilin”. Also, the “AUC of fundic relaxation (0-to-5 min.)” value in test [1] (0.30 mg/kg i.v., motilin infusion 0.010 mg/kg/h i.v., milk meal, vehicle 18.7±3.3, n=4, p<0.05) stood at 27.3 ± 3.5 mL/h. Besides, the “natural relaxation of the stomach in response to a meal (baseline, no motilin)” value in test [1] (0.1, 0.3 and 1.0 mg/kg, i.v., preliminary experiment) is “did not disturb this baseline phenomenon”. For the same compound, the “motilin-induced increase in fundic tone, dose dependence” value in test [1] (FIG. 3, cross-over design, N=6 dogs) was “prevented this increase in a dose-dependent manner”. The “post-prandial CA, % of pre-drug baseline” value in test [2] (0.30 mg/kg i.v., 2 h after standard 75 g meal, during first hour, n=2, vehicle 106±10%) is 58±4%. Besides, the post-prandial activity entry in test [2] (0.30 mg/kg, i.v., fed dogs) is recorded as “briefly attenuate post-prandial activity”. The “effect on the migrating motor complex (MMC)” value in test [3] (0.30 mg/kg, i.v.) is given as “lesser delay of MMCs”; in test [3] (1 mg/kg, i.v., N=6), “delay the migrating motor complex (MMC)”. Moreover, the “contraction amplitude (CA), % of baseline CA” value came to 52±21% in test [3] (1.0 mg/kg i.v., after 4 h) and 5±2% in test [3] (1.0 mg/kg i.v., over the first hour). In test [3] (1.0 mg/kg i.v., controls 99±15 min, P<0.01, n=4, mean±SEM), the “time to first MMC” value came out at 225 ± 31 min. Also, the “phase III activity of the MMC” value in test [3] (0.10, 0.30, 1.0 mg/kg, i.v., after overnight fast) is reported as “suppressed the regular occurrence of phase III activity of the MMC in a dose-dependent manner”. Also, in test [3] (0.10 and 0.30 mg/kg doses, n=2), the “time until CA returned to baseline levels” value is on record as 3 h.
